Reference: US9000208B2, “Glutamate derivatives or salts thereof” (Ajinomoto Co., Inc., priority 2010, dated 2015)
Counter-ions that a name gives are not always drawn. Numbered stars: 1 amine (or outer) side, 2 acyl side, 3 side chain; on linkers, the order of the positions; unused ones are H or OH. Square brackets hold non-standard residues; d marks the D form. Ends that are not written are not given here. γGlu = O=C(O)[C@H](CCC(=O)[*:2])N[*:1]

Assays:
[1] = Evaluation of kokumi taste, quantitative sensory evaluation test; set-up: species or system human; details: for Kokumi Intensity Aftertaste / Kokumi Intensity First-middle taste: score control 0, strong 3, very strong 5, n=4
Description: On the compounds in which the calcium receptor activating action was found (sodium salts of Compound Nos. 1, 7 and 21), the intensity of kokumi-imparting activity was examined by a quantitative sensory evaluation test. In 5 ml of distilled water was dissolved 525 mg of Compound No. 1 described in REFERENCE EXAMPLE I and of REFERENCE […] EXAMPLE I. By adding 16.4 ml of 0.1M sodium hydroxide solution to the resulting solution, the solution was adjusted to pH 6.5 to 7 followed by freeze-drying. The resulting Na salt was provided for use. In addition, 500 mg of Compound No. 7 described in REFERENCE EXAMPLE I and REFERENCE […] EXAMPLE 7 was suspended in 5 ml of distilled water. To the suspension were sequentially added 1.61 ml of 1M sodium hydroxide and 0.8 ml of 2M hydrochloric acid at 0° C. The solid precipitated was taken out by filtration and dried under reduced pressure at 40° C. to give 426 mg of Reference Compound No. 7. After the solid substance obtained was suspended in 10 ml of distilled water, 1.2 ml of 1M sodium hydroxide was added to the suspension and freeze-dried. The resulting Na salt was provided for use. Reference Compound No. 21 was used in the form of the Na salt, which was prepared from Compound No. 21 described in REFERENCE EXAMPLE I and REFERENCE […] EXAMPLE 21 by the same procedures as described above.
A quantitative sensory evaluation test was conducted as follows. The intensity of kokumi-imparting activity was examined when 0.000001 to 0.1 g/dl of the compound as a sample (No. 1—Na salt) was mixed with distilled water containing sodium glutamate (0.05 g/dl), inosine monophosphate (0.05 g/dl) and sodium chloride (0.5 g/dl). As a reference, γGlu-Cys-Gly and γGlu-Val-Gly were used, each of which is a known kokumi-imparting component. The sample that became acidic to an additive-free control after dissolving the sample was used by adjusting its pH within ±0.2 with NaOH based on the additive-free control. Sensory scoring was defined as a control: 0, strong: 3 and very strong: 5, and performed in n=4. Meanwhile, a “first-middle taste” is intended to mean the taste combining the first taste and middle taste.

rat large intestine loop = assay: Effect of CaSR agonist on water absorption in rat large intestine loop method (PGE2-treated); assay type: in vivo; details: male SD (IGS) rat, PGE2 i.p., compound in Tyrode solution in the loop, 1 hour
Description: Under pentobarbital anesthesia the cecum and large intestine were isolated from the abdomen of a male SD (IGS) rat, and a large intestine loop was prepared by ligating a point 5 cm just below the cecum. Immediately after preparing the loop, PGE2 (4 μg/ml/kg, SIGMA) was intraperitoneally administered. Thirty minutes later, 2 ml of Tyrode solution (136.9 mM NaCl, 2.7 mM KCl, 1.8 mM CaCl2.2H2O, 1.04 mM MgCl2.6H2O, 0.04 mM NaH2PO4.2H2O, 5.55 mM glucose and 11.9 mM NaHCO3) was poured into the loop prepared. An hour later, the weight of the loop, the weight when the liquid was removed from the loop and the loop area were measured to calculate the weight per unit area of the liquid that remains in the loop.
A test compound was dissolved in Tyrode solution (adjusted to pH 6.5 to 7.5), which was provided for tests.
The remaining liquid weight per unit area (g/cm^2) was calculated by the following equation. Remaining liquid weight per unit area (g/cm^2)=(loop weight−loop weight when the liquid was removed from the loop)/loop area
Water absorption was evaluated by calculating the inhibition ratio by the following equation. Inhibition ratio(%)=100−(remaining liquid weight per unit area with a drug−basic average remaining liquid weight per unit area)/(average remaining liquid weight per unit area of vehicle−basic average remaining liquid weight per unit area)×100 […]

For N[C@@H](CCC(=O)Nc1cccc(S(=O)(=O)O)c1)C(=O)O [No. 1-Na salt, N^5-(3-sulfophenyl)-L-glutamine], the kokumi-imparting activity ([1]; 0.000001 to 0.1 g/dl in water with sodium glutamate 0.05, inosine monophosphate 0.05, sodium chloride 0.5 g/dl) was “widely found in the above concentrations”, the “Kokumi Intensity Aftertaste” value ([1]; 0.00001 g/dl) was 1.0 and the “Kokumi Intensity First-middle taste” value ([1]; 0.00001 g/dl) was 0.7. For the same compound, the “Comments on Sensory Evaluation” value ([1]; 0.0001 g/dl) was “There was harmony accompanied”, the “Kokumi Intensity Aftertaste” value ([1]; 0.0001 g/dl) was 2.0 and the “Kokumi Intensity First-middle taste” value ([1]; 0.0001 g/dl) was 1.8. The “Kokumi Intensity Aftertaste” value ([1]; 0.0005 g/dl) was 3.0, the “Kokumi Intensity First-middle taste” value ([1]; 0.0005 g/dl) was 2.6 and the “Kokumi Intensity Aftertaste” value ([1]; 0.001 g/dl) was 3.6. For the same compound, the “Kokumi Intensity First-middle taste” value ([1]; 0.001 g/dl) was 3.2, the “Comments on Sensory Evaluation” value ([1]; 0.01 g/dl) was “All tastes were strong” and the “Kokumi Intensity Aftertaste” value ([1]; 0.01 g/dl) was 5.0. The “Kokumi Intensity First-middle taste” value ([1]; 0.01 g/dl) was 5.0.
For N[C@@H](CCC(=O)Nc1cc(Cl)cc(S(=O)(=O)O)c1O)C(=O)O [No. 7-Na salt, N^5-(5-chloro-2-hydroxy-3-sulfophenyl)-L-glutamine], the “Comments on Sensory Evaluation” value ([1]; 0.00005 g/dl) was “Thickness mainly in the middle taste”, the “Kokumi Intensity Aftertaste” value ([1]; 0.00005 g/dl) was 2.5 and the “Kokumi Intensity First-middle taste” value ([1]; 0.00005 g/dl) was 2.2. For the same compound, the “Kokumi Intensity Aftertaste” value ([1]; 0.0001 g/dl) was 3.2, the “Kokumi Intensity First-middle taste” value ([1]; 0.0001 g/dl) was 2.5 and the “Comments on Sensory Evaluation” value ([1]; 0.0005 g/dl) was “Rich thickness in the middle taste”. The “Kokumi Intensity Aftertaste” value ([1]; 0.0005 g/dl) was 4.0 and the “Kokumi Intensity First-middle taste” value ([1]; 0.0005 g/dl) was 3.3.
With Cc1c(Cl)cc(NC(=O)CC[C@H](N)C(=O)O)cc1S(=O)(=O)O [No. 21-Na salt, N^5-(3-chloro-4-methyl-5-sulfophenyl)-L-glutamine] the “Kokumi Intensity Aftertaste” value ([1]; 0.0002 g/dl) was 2.0, the “Kokumi Intensity First-middle taste” value ([1]; 0.0002 g/dl) was 1.5 and the “Kokumi Intensity Aftertaste” value ([1]; 0.0005 g/dl) was 3.1. The “Kokumi Intensity First-middle taste” value ([1]; 0.0005 g/dl) was 2.6, the “Kokumi Intensity Aftertaste” value ([1]; 0.001 g/dl) was 3.7 and the “Kokumi Intensity First-middle taste” value ([1]; 0.001 g/dl) was 3.1.
In the case of N[C@@H](CCC(=O)Nc1cccc(S(=O)(=O)O)c1)C(=O)O [Reference Compound No. 1, N^5-(3-sulfophenyl)-L-glutamine], the Water absorption (rat large intestine loop) is reported as “promoted dose-dependently”.
For N[C@@H](CCC(=O)Nc1cc(Cl)cc(S(=O)(=O)O)c1O)C(=O)O [Reference Compound No. 7, N^5-(5-chloro-2-hydroxy-3-sulfophenyl)-L-glutamine], the Water absorption (rat large intestine loop) was “promoted in a dose-dependent manner”.
With [γGlu]-Cys-Gly the “Comments on Sensory Evaluation” value ([1]; 0.01 g/dl) was “Richness, thickness and continuity”, the “Kokumi Intensity Aftertaste” value ([1]; 0.01 g/dl) was 3.0 and the “Kokumi Intensity First-middle taste” value ([1]; 0.01 g/dl) was 3.0.
With [γGlu]-Val-Gly the “Comments on Sensory Evaluation” value ([1]; 0.001 g/dl) was “Smoothness, richness and growth”, the “Kokumi Intensity Aftertaste” value ([1]; 0.001 g/dl) was 3.0 and the “Kokumi Intensity First-middle taste” value ([1]; 0.001 g/dl) was 2.5. The “Comments on Sensory Evaluation” value ([1]; 0.005 g/dl) was “Smoothness, richness and growth”, the “Kokumi Intensity Aftertaste” value ([1]; 0.005 g/dl) was 4.0 and the “Kokumi Intensity First-middle taste” value ([1]; 0.005 g/dl) was 3.5.
